Reference: patent publication US20070009621A1, “Correcting systemic androgen levels using Eurycoma longifolia” (priority 2005, published 2007)

Tested on: rat testicular cell homogenate
Test: Incubation of rat testicular homogenate with pregnenolone and extract, capillary gas chromatography of steroids
Assay type: biochemical
Conditions: gas capillary analysis
Method: To preliminary assess the activity of Eurycoma longifolia, an extract of it was prepared and incubated with rat testicular cell homogenate. After the incubation was completed, the samples were measured using capillary gas chromatography to measure the presence of various hormones. 500 g of the dried pulverized root was boiled exhaustively with 5 L of distilled water for 24 hours. The extract was concentrated to a 40% mass, allowed to cool to room temperature, filtered using a 4 micron filter, then centrifuged at 10,000 rpm for five minutes. Supernatant was collected and freeze-dried yielding yellow brown colored fine powder. Tris/sucrose buffer, PH 7.4 was used as homogenizing buffer and medium for suspending the testicular homogenate. This buffer, consisting of 0.25M sucrose, 0.05M Tris-HCL, 0.025M KCl and 0.005M MgCl2H2O was prepared fresh and kept cool at 4° C. Sprague Dawley albino male rats were sacrificed by stunning followed by cervical dislocation. Testes were removed quickly, pooled and homogenized in Tris/sucrose buffer (10% w/v) using homogenizer. Homogenate was then centrifuged at 1000×g (3000 rpm) for 20 minutes to remove the nuclei and cell debris. Post-nuclei suspension was used for incubation studies; a portion of the suspension was reserved for protein determination. 10 ml of the testes homogenate was first treated with 5 ml ethyl acetate before incubation process. […]

Compound: CC(=O)[C@H]1CC[C@H]2[C@@H]3CC=C4C[C@@H](O)CC[C@]4(C)[C@H]3CC[C@]12C [Prenenolone, Pregnenolone]
- An α (16-androstene steroid metabolite (pheromone)): 1.62
- An β Andien β (16-androstene steroid metabolites (pheromones)): 1.99
